The source of these data is PubChem BioAssay AID1549 (Sanford-Burnham Center for Chemical Genomics, 2009).

Active and inactive are the calls of the source. No rule for the calls is given here. Bounds are passed on as bounds.

In the assay the target is Influenza A virus M2 proton channel (A/TW/4845/1999 H1N1). Put plainly: M2 proton channel binding, NMR based, influenza A virus H1N1 strain (AID 1549). The following applies: NMR binding screen, M2 protein.
With `COc1cc2c(cc1O)CC1c3c(cc(O)c(OC)c3-2)CCN1C` (stereo not given), the Kd (commonly the concentration at which binding is half-saturated) is > 4 mM (inactive). As to `CCC(C)C(=O)O[C@H]1[C@H](O)C2C(CN3CC(C)CCC3[C@@]2(C)O)C2C[C@]34O[C@]5(O)C(OC(=O)C(C)(O)CC)CC[C@@]3(C)C5C(OC(C)=O)[C@@H](OC(C)=O)C4[C@@]21O` (stereo not given in full), the Kd was > 4 mM (inactive). For the compound `CN(C)CCNC(CC(=O)Nc1ccccc1)C(=O)O` (stereo not given), the Kd is > 4 mM (inactive). `COCC(=O)Nc1ccc(C)c(Cl)c1`: the Kd is > 4 mM (inactive).

`OCc1nccn1Cc1ccccc1`: the Kd was > 4 mM (inactive). With `COC(=O)C[C@H]1C(C)(C)C(=O)[C@@H]2CC3C4=CC(=O)O[C@@H](c5ccoc5)[C@]4(C)CCC3C1(C)C2=O` (stereo not given in full), the Kd was > 4 mM (inactive). With `Nc1ccccc1C(=O)N1CCNC(=O)C1`, the Kd was > 4 mM (inactive). Consider `NC(N)=NCCCCN=C(N)N`, for which the Kd is > 4 mM (inactive). As for `O=C(c1ncc[nH]1)c1ccccc1C(=O)N1CCOCC1`, the Kd was > 4 mM (inactive). In the case of `O=C(O)C1=Cc2ccccc2OC1`, the Kd is > 4 mM (inactive). The value for `CN(C)c1ccc(N2C(=O)CCC2=O)cc1` was > 4 mM (inactive); that for `COc1c2c(cc3occ(-c4ccc5c(c4)OCO5)c(=O)c13)OC(C)(C)C=C2` was > 4 mM (inactive); that for `CC(=O)c1cccc(NS(=O)(=O)N2CCCCC2)c1` was > 4 mM (inactive).

For the compound `Cc1cc(C)nc(/N=C(\N)N2CCc3ccccc32)n1`, the Kd was > 4 mM (inactive). Then `Nc1ccc(Oc2ccccc2)nc1`, with > 4 mM (inactive); and `O=C(O)CSc1nnc(-c2cccs2)o1`, with > 4 mM (inactive). Then `Cc1cc(C)n(CCCC(=O)O)n1`, with > 4 mM (inactive); and `O=C1CCC(=O)N1c1ccc(O)cc1`, with > 4 mM (inactive); and `O=C(O)C12CC3CC(CC(O)(C3)C1)C2`, with > 4 mM (inactive). As for `O=C1C=CC(=O)N1c1ccccc1O`, the Kd was > 4 mM (inactive). Turning to `CSc1nc(-c2ccco2)nn1S(C)(=O)=O`, the Kd is > 4 mM (inactive).

As for `COc1ccc(-c2coc3cc(O)ccc3c2=O)cc1`, the Kd was > 4 mM (inactive). As to `COc1c2occc2cc2ccc(=O)oc12`, the Kd is > 4 mM (inactive). As to `NS(=O)(=O)c1ccc(NC(=S)NC2CC2)cc1`, the Kd is > 4 mM (inactive).

For `O=c1c2ccccc2nc(-c2ccco2)n1-c1nccs1`, the Kd is > 4 mM (inactive). Turning to `O=C(O)C(Cc1cnc[nH]1)N1C(=O)c2ccccc2C1=O` (stereo not given), the Kd was > 4 mM (inactive).

As for `COc1ccc(CN2CCC(O)CC2)c(O)c1`, the Kd is > 4 mM (inactive). As for `CC(=O)O[C@@H]1CC2C(C)(C)[C@H](O)C=C[C@]2(C)C2CC[C@]3(C)C(=CC(=O)O[C@H]3c3ccoc3)[C@@]21C` (stereo not given in full), the Kd was > 4 mM (inactive). As to `Cc1c(CCO)c(=O)n2c([nH]c3ccccc32)c1C#N`, the Kd is > 4 mM (inactive).

With `Cc1cc(Cl)ccc1NC(=O)C(N)=O`, the Kd is > 4 mM (inactive). On to `COCC(=O)Nc1ccc(F)cc1F`, for which the Kd is > 4 mM (inactive). Take `CCOC(=O)N1CCCC1c1cccnc1` (stereo not given): the Kd was > 4 mM (inactive). For the compound `O=C(O)c1cc2ccccc2s1`, the Kd is > 4 mM (inactive). With `Nc1cccc(C(=O)Nc2ccc(N)cc2Cl)c1`, the Kd is > 4 mM (inactive).

Regarding `CN(C)C(=S)Nc1ccccc1N1CCOCC1`, the Kd was > 4 mM (inactive).

Consider `CC1CN(C(=O)c2ccncc2)CC(C)O1` (stereo not given), for which the Kd is > 4 mM (inactive). The value for `Cc1ccc(C(=O)NCCO)c(Cl)c1` was > 4 mM (inactive); that for `O=C(Nc1ccon1)c1ccccc1Cl` was > 4 mM (inactive); that for `O=c1nc(N2CCOCC2)nc2n1CCO2` was > 4 mM (inactive).

With `Cc1ccc2[nH]c3nc(=S)[nH]nc3c2c1`, the Kd was > 4 mM (inactive).
